{"source": "paper PMC10720437", "about": "“Non-therapeutic plasma levels in individuals utilizing curcumin supplements in daily life” (Frontiers in Nutrition, 2023)", "key": {"[1]": {"test": "Plasma levels of curcumin, metabolites and piperine by HPLC-MS/MS in participants using their own curcumin formulations", "type": "in vivo, human", "protocol": "This study is an observational, open-label study investigating the plasma concentration of curcumin as used in daily life. Each participant was instructed to bring their own curcumin formulation on the day of visit. Participants were asked not to take their curcumin formulation in the morning on the day of visit. Blood was taken just before intake of the curcumin supplement (trough concentration) and 1.5 h after intake (expected peak concentration). Any food or beverage intake between these time points was registered while participants were not allowed to take any additional curcumin in between these two time points.\nBlood was collected in heparinized tubes and protected against light by wrapping in aluminum foil directly after sampling. All samples were centrifuged (Rotina 380R from Hettich) for 10 min at 2754 RCF and 20°C and the obtained plasma was immediately stored, protected from light, at –80°C until analysis.\nTo determine the active plasma concentrations of curcumin, demethoxycurcumin, bisdemethoxycurcumin, and tetrahydrocurcumin it is important to highlight the difference between conjugated and unconjugated forms of these different compounds. A way to show this difference is to pretreat each sample with and without β-glucoronidase. In short, we used β-glucoronidase from Sigma-Aldrich (St. Louis, MO, USA), which contained ≥300,000 U/g β-glucoronidase and ≥10,000 U/g sulfatase, which hydrolyzes the hydrophilic glucuronic and sulfate acid group from conjugated curcumin (Figure 1) ([19]). The optimal pH for β-glucoronidase activity is 5.0 ([20]). Although our final mixture of sample plus β-glucoronidase solution has a slightly higher pH, we confirmed that after 1 h incubation at 37°C and 850 repetition per minute (rpm), a plateau was reached. No further conversion of conjugated curcumin into deconjugated curcumin occurred, indicating a complete reaction. Therefore, adding β-glucoronidase/sulfatase mixture results in an increase of unconjugated curcumin, demethoxycurcumin, bisdemethoxycurcumin, and tetrahydrocurcumin by displaying the sum of ‘previous’ conjugated and unconjugated curcuminoids and tetrahydrocurcumin.\nPlasma samples were analyzed by our validated HPLC-MS/MS method ([21]). In short, on the day of analysis, samples were thawed and pretreated with and without β-glucoronidase. The samples treated with β-glucoronidase were incubated with 20 U/μL β-glucuronidase at 37°C and 850 revolutions per minute (RPM) for 1 h. Liquid–liquid extraction with Tert Butyl Methyl Ether (TBME) as organic phase was used to extract the compounds from the plasma. Curcumin, demethoxycurcumin, bisdemethoxycurcumin, tetrahydrocurcumin and piperine were quantified in a single analytical run. The HPLC-MS/MS system consisted of an Ultimate 3000 autosampler and pump, both of Dionex, connected to a degasser from LC Packings. The autosampler, with a 100 μL sample loop, was coupled to a Sciex API4000 mass spectrometer. After injection of 50 μL sample, separation of the analytes was performed with an Agilent column 2.1 × 100 mm packed with material of Zorbax Extend 3.5 μm C-18. The flowrate was […] and the dual gradient mobile phase consisted of A: ultra-purified H2O with 0.1% formic acid and B: MeOH 100%. The applied gradient profile started at 50:50 A:B and increased linear to 95% B in 3.0 min. During 6 min a 5:95 A:B level is continued, after which it returned in 0.2 min to 50:50. Afterwards the system was equilibrated during 6 min at the starting level. Throughout the liquid–liquid extraction and HPLC-MS/MS the potential influence of light was minimized by working in an dark environment with aluminum foil as much as possible. Each analytical run included a set of freshly prepared calibration samples containing all compounds in the validated range of 2 nM to 400 nM."}, "CYP3A": {"tested_on": "CYP3A", "parameters": "method as in PMID 18480186", "conditions": "cited from earlier work"}, "[2]": {"tested_on": "mouse model for pancreatic cancer", "parameters": "method as in PMID 19528445", "conditions": "cited from earlier work"}, "[3]": {"conditions": "cited from earlier work"}, "[4]": {"parameters": "method as in PMID 9619120", "conditions": "addition of 20 mg/kg piperine; rats; cited from earlier work"}, "[5]": {"parameters": "method as in PMID 16545122", "conditions": "oral dosages of up to 12 gram; cited from earlier work"}, "[6]": {"parameters": "method as in PMID 9278892", "conditions": "human blood incubated for 8 h at 37°C; cited from earlier work"}, "[7]": {"conditions": "human, in vivo, Mean concentration"}, "[8]": {"conditions": "human, in vivo, Plasma level in individual participants"}, "[9]": {"conditions": "with addition of β-glucuronidase, 0 h (trough), human plasma"}, "[10]": {"conditions": "with addition of β-glucuronidase, 1.5 h (expected peak), human plasma"}, "[11]": {"conditions": "without addition of β-glucuronidase, 0 h (trough), human plasma"}}, "note": "“And” between values parts separate entries of the source, which are not always exact repeats. Equal entries are not always repeated.", "data": [{"compound": "O=C(/C=C/c1ccc(O)cc1)CC(=O)/C=C/c1ccc(O)cc1", "note": "[Bisdemethoxycurcumin, bisdemethoxycurcumin]", "values": [{"measurement": "Plasma concentrations", "setting": "[1]; human, in vivo", "result": "1.0 to 18.6", "unit": "ng/mL"}, {"measurement": "Plasma level in individual participants", "setting": "[1]; human, in vivo", "result": 2.1, "unit": "ng/mL"}, {"measurement": "Concentration range", "setting": "[1]; human, in vivo, 0 h", "result": "0.7 to 2.7", "unit": "ng/mL"}, {"measurement": "Mean concentration", "setting": "[1]; human, in vivo, 0 h", "result": 1.6, "unit": "ng/mL"}, {"measurement": "Concentration range", "setting": "[1]; human, in vivo, 1.5 h", "result": "0.7 to 60.4", "unit": "ng/mL"}, {"measurement": "Mean concentration", "setting": "[1]; human, in vivo, 1.5 h", "result": 6.1, "unit": "ng/mL"}, {"measurement": "concentration at 0 h", "setting": "[1]; [7]", "result": 2.1, "unit": "ng/mL"}, {"measurement": "concentration at 1.5 h", "setting": "[1]; [8]", "result": "< 0.62", "unit": "ng/mL"}]}, {"compound": "COc1cc(/C=C/C(O)=C/C(=O)/C=C/c2ccc(O)cc2)ccc1O", "note": "[Demethoxycurcumin, demethoxycurcumin]", "values": [{"measurement": "Plasma concentrations", "setting": "[1]; human, in vivo", "result": "1.0 to 18.6", "unit": "ng/mL"}, {"measurement": "Plasma level in individual participants", "setting": "[1]; human, in vivo", "result": "< 0.68", "unit": "ng/mL"}, {"measurement": "Concentration range", "setting": "[1]; human, in vivo, 0 h", "result": "1.4 to 8.6", "unit": "ng/mL"}, {"measurement": "Mean concentration", "setting": "[1]; human, in vivo, 0 h", "result": 3.5, "unit": "ng/mL"}, {"measurement": "Concentration range", "setting": "[1]; human, in vivo, 1.5 h", "result": "0.9 to 73.1", "unit": "ng/mL"}, {"measurement": "Mean concentration", "setting": "[1]; human, in vivo, 1.5 h", "result": 9.4, "unit": "ng/mL"}, {"measurement": "concentration at 1.5 h", "setting": "[1]; [8]", "result": "< 0.68", "unit": "ng/mL"}]}, {"compound": "O=C(/C=C/C=C/c1ccc2c(c1)OCO2)N1CCCCC1", "note": "[Piperine, piperine]", "values": [{"measurement": "IC50", "setting": "CYP3A", "result": "5.5 ± 0.7", "unit": "µM"}, {"measurement": "Fold lower than piperine plasma concentrations in literature that affect curcumin bioavailability", "setting": "[1]; human, in vivo", "result": "10-60 fold"}, {"measurement": "Trough and peak level concentrations", "setting": "[1]; human, in vivo", "result": "1.0 to 1096", "unit": "ng/mL"}, {"measurement": "Detectability in plasma", "setting": "[1]; in vivo", "result": "detectable in all participants"}]}, {"compound": "COc1cc(CCC(=O)CC(=O)CCc2ccc(O)c(OC)c2)ccc1O", "note": "[Tetrahydrocurcumin, tetrahydrocurcumin]", "values": [{"measurement": "Plasma concentrations", "setting": "[1]; human, in vivo", "result": "1.0 to 18.6", "unit": "ng/mL"}, {"measurement": "Plasma level in individual participants", "setting": "[1]; human, in vivo", "result": "< 0.74", "unit": "ng/mL"}, {"measurement": "Concentration range", "setting": "[1]; human, in vivo, 0 h", "result": "0.8 to 81.2", "unit": "ng/mL"}, {"measurement": "Mean concentration", "setting": "[1]; human, in vivo, 0 h", "result": 14.6, "unit": "ng/mL"}, {"measurement": "Mean concentration", "setting": "[1]; human, in vivo, 1.5 h", "result": 21.6, "unit": "ng/mL"}, {"measurement": "Plasma level in individual participants", "setting": "[1]; human, in vivo, 1.5 h", "result": 20.9, "unit": "ng/mL"}, {"measurement": "concentration at 1.5 h", "setting": "[1]; [7]", "result": 18.6, "unit": "ng/mL"}, {"measurement": "concentration at 1.5 h", "setting": "[1]; [8]", "result": 16.4, "unit": "ng/mL"}]}, {"compound": "curcumin", "values": [{"measurement": "Tumor growth", "setting": "[2]", "result": "reduced the tumor growth"}, {"measurement": "Curcumin concentrations", "setting": "[3]; oral lipid formulations, β-glucuronidase added prior to analysis", "result": "up to 1189.1 ± 518.8 ng/mL"}, {"measurement": "Claimed plasma concentration relative to the concentration of unconjugated curcumin", "setting": "[3]; β-glucuronidase added to plasma prior to analysis", "result": "up to 185 x"}, {"measurement": "Increase of bioavailability of curcumin", "setting": "[4]", "result": 154, "unit": "%"}, {"measurement": "Levels of curcumin in the systemic circulation", "setting": "[5]", "result": "no detectable levels"}, {"measurement": "Fold below a plasma concentration expected to have a beneficial health effect", "setting": "[1]; curcumin plasma level after adding β-glucuronidase (25.4 ng/mL)", "result": 1000, "unit": "fold"}, {"measurement": "Cmax", "setting": "[1]; one of three participants using curcumin lipid formulations, dosage 800 mg", "result": 355, "unit": "nM"}, {"measurement": "Fold lower than the concentrations assessed in vitro", "setting": "[1]; unconjugated free curcumin in plasma", "result": "> 1000", "unit": "fold"}, {"measurement": "Detectable levels in # persons", "setting": "[1]; [9]", "result": 27}, {"measurement": "Mean concentration", "setting": "[1]; [9]", "result": 14.3, "unit": "ng/mL"}, {"measurement": "Detectable levels in # persons", "setting": "[1]; [10]", "result": 42}, {"measurement": "Mean concentration", "setting": "[1]; [10]", "result": 25.4, "unit": "ng/mL"}, {"measurement": "Participants in whom curcumin after hydrolysis could not be detected (below LLOQ)", "setting": "[1]; with β-glucuronidase, 1.5 h after dosing", "result": 5}, {"measurement": "Detectable levels in # persons", "setting": "[1]; [11]", "result": 1}, {"measurement": "Mean concentration", "setting": "[1]; [11]", "result": 10.1, "unit": "ng/mL"}, {"measurement": "Mean concentration", "setting": "[1]; without addition of β-glucuronidase, 1.5 h (expected peak), human plasma", "result": 1.0, "unit": "ng/mL"}, {"measurement": "Detectable levels in # persons", "setting": "[1]; without addition of β-glucuronidase, 1.5 h after intake (expected peak), human plasma", "result": 2}, {"measurement": "Plasma level in individual participants", "setting": "[1]; without β-glucuronidase, expected peak level, 1.5 h after intake", "result": "0.9 ng/mL and 1.1 ng/mL"}, {"measurement": "Plasma level in individual participants", "setting": "[1]; without β-glucuronidase, trough level", "result": 10.1, "unit": "ng/mL"}, {"measurement": "Decrease of chemical t1/2", "setting": "[6]", "result": 50, "unit": "%"}]}]}
